{"source": "patent US20050215614A1", "about": "“Substituted indoles and their use as hcv inhibitors” (Rigel Pharmaceuticals, Inc., priority 2003, published 2005)"}
{"system": "HCV replicon", "experiment": "HCV Replicon Assay (luciferase, 5-2 Luc replicon cells)", "type": "cell-based", "conditions": "5-2 Luc replicon cells (Huh7), 24-48 hours with compound, luciferase counts", "method": "Actively dividing 5-2 Luc replicon cells were seeded at the density of 5000-7500 cells/well in the volume of 90 μl/well into 96 well plate(s). The cells were then incubated at 37° C. and 5% CO2 for 24 hours. The 5-2 cells are replicon cells licensed from Ralf Bartenschlager (Germany) and have a self-replicating RNA molecule in the Huh7 cell; the RNA contains HCV non-structural proteins that make the self-replication possible.\nVarious concentrations of compounds (in the volume of 10 μl) were added into each well 24 hours after seeding the cells. The cells were incubated for another 24-48 hours before luciferase assay.\nAfter incubating the 5-2 Luc replicon cells with the compounds for 24-48 hours, media were aspirated from each well and Bright-Glo (Promega) luciferase assay reagents were added to each well according to the manufacturer′s manual. Briefly, the Bright-Glo reagent was diluted with equal volume of PBS and an aliquote (100 μl) was added to each well. After incubating the plate at room temperature for 5 minutes, luciferase counts were taken using a luminometer."}
{"smiles": "Cc1cc2cc(NC(=O)C3CCC(=O)C3)ccc2n1C(=O)c1cc(Cl)nc(Cl)c1", "note": "(stereo not shown) [Compound 16g-3, 1-(2′,6′-Dichloro-4-pyridylcarbonyl)-5-(3-oxo-1-cyclopentanecarbonyl)amino-2-methylindole]", "Activity (concentration of inhibitory activity)": "a (“a” indicates inhibitory activity at a concentration of less than 10 micromolar)"}
{"smiles": "Cc1cc2cc(NC(=O)C3CCCC3)ccc2n1C(=O)c1ccccc1Cl", "note": "[Compound 18, 1-(2′-Chlorobenzoyl)-5-cyclopentanecarbonylamino-2-methylindole]", "Activity (concentration of inhibitory activity)": "b (“b” indicates activity is at a concentration greater than 10 micromolar)"}
{"smiles": "COc1ccccc1C(=O)n1c(C)cc2cc(NC(=O)C3CCCC3)ccc21", "note": "[Compound 19, 1-(o-Anisoyl)-5-cyclopentanecarbonylamino-2-methylindole]", "Activity (concentration of inhibitory activity)": "a (“a” indicates inhibitory activity at a concentration of less than 10 micromolar)"}
{"smiles": "CC(C)(C)c1cc2cc(NC(=O)CCN3CCCCC3)ccc2[nH]1", "note": "[Compound 213]", "Activity (concentration of inhibitory activity)": "b (“b” indicates activity is at a concentration greater than 10 micromolar)"}
{"smiles": "CC(=O)N1CCC(C(=O)Nc2ccc3[nH]c(C(C)(C)C)cc3c2)CC1", "note": "[Compound 214]", "Activity (concentration of inhibitory activity)": "b (“b” indicates activity is at a concentration greater than 10 micromolar)"}
{"smiles": "CC(C)(C)c1cc2cc(NC(=O)CCc3c[nH]c4ccccc34)ccc2[nH]1", "note": "[Compound 215]", "Activity (concentration of inhibitory activity)": "b (“b” indicates activity is at a concentration greater than 10 micromolar)"}
{"smiles": "CC(C)(C)c1cc2cc(NC(=O)Cc3ccc4c(c3)OCO4)ccc2[nH]1", "note": "[Compound 216]", "Activity (concentration of inhibitory activity)": "b (“b” indicates activity is at a concentration greater than 10 micromolar)"}
{"smiles": "CC(C)(C)c1cc2cc(NC(=O)Cc3cccnc3)ccc2[nH]1", "note": "[Compound 217]", "Activity (concentration of inhibitory activity)": "b (“b” indicates activity is at a concentration greater than 10 micromolar)"}
{"smiles": "CC(=O)NCCC(=O)Nc1ccc2[nH]c(C(C)(C)C)cc2c1", "note": "[Compound 218]", "Activity (concentration of inhibitory activity)": "b (“b” indicates activity is at a concentration greater than 10 micromolar)"}
{"smiles": "CC(C)(C)c1cc2cc(NC(=O)CC(c3ccccc3)c3ccccc3)ccc2[nH]1", "note": "[Compound 219]", "Activity (concentration of inhibitory activity)": "b (“b” indicates activity is at a concentration greater than 10 micromolar)"}
{"smiles": "CC(C)(C)c1cc2cc(NC(=O)Cc3ccc(F)cc3)ccc2[nH]1", "note": "[Compound 220]", "Activity (concentration of inhibitory activity)": "b (“b” indicates activity is at a concentration greater than 10 micromolar)"}
{"smiles": "CC(C)(C)c1cc2cc(NC(=O)Cc3ccc(-c4ccccc4)cc3)ccc2[nH]1", "note": "[Compound 221]", "Activity (concentration of inhibitory activity)": "b (“b” indicates activity is at a concentration greater than 10 micromolar)"}
{"smiles": "CN(C)CCCC(=O)Nc1ccc2[nH]c(C(C)(C)C)cc2c1", "note": "[Compound 222]", "Activity (concentration of inhibitory activity)": "b (“b” indicates activity is at a concentration greater than 10 micromolar)"}
{"smiles": "COc1cscc1C(=O)Nc1ccc2[nH]c(C(C)(C)C)cc2c1", "note": "[Compound 223]", "Activity (concentration of inhibitory activity)": "a (“a” indicates inhibitory activity at a concentration of less than 10 micromolar)"}
{"smiles": "CCCC(=O)Nc1ccc2[nH]c(C(C)(C)C)cc2c1", "note": "[Compound 224]", "Activity (concentration of inhibitory activity)": "b (“b” indicates activity is at a concentration greater than 10 micromolar)"}
{"smiles": "CC(C)(C)c1cc2cc(NC(=O)c3ccccc3)ccc2[nH]1", "note": "[Compound 225]", "Activity (concentration of inhibitory activity)": "b (“b” indicates activity is at a concentration greater than 10 micromolar)"}
{"smiles": "CC(C)(C)c1cc2cc(NC(=O)c3cccc(F)c3)ccc2[nH]1", "note": "[Compound 226]", "Activity (concentration of inhibitory activity)": "b (“b” indicates activity is at a concentration greater than 10 micromolar)"}
{"smiles": "CC(C)(C)c1cc2cc(NC(=O)c3cccc(Cl)c3)ccc2[nH]1", "note": "[Compound 227]", "Activity (concentration of inhibitory activity)": "b (“b” indicates activity is at a concentration greater than 10 micromolar)"}
{"smiles": "CC(C)(C)c1cc2cc(NC(=O)c3cc4ccccc4s3)ccc2[nH]1", "note": "[Compound 228]", "Activity (concentration of inhibitory activity)": "b (“b” indicates activity is at a concentration greater than 10 micromolar)"}
{"smiles": "CC(C)(C)c1cc2cc(NC(=O)c3sccc3Cl)ccc2[nH]1", "note": "[Compound 229]", "Activity (concentration of inhibitory activity)": "b (“b” indicates activity is at a concentration greater than 10 micromolar)"}
{"smiles": "CC(C)(C)c1cc2cc(NC(=O)c3ccco3)ccc2[nH]1", "note": "[Compound 230]", "Activity (concentration of inhibitory activity)": "b (“b” indicates activity is at a concentration greater than 10 micromolar)"}
{"smiles": "Cc1cn(C(=O)c2c(Cl)cccc2Cl)c2ccc(NC(=O)C3(c4ccc(Cl)cc4)CCCC3)cc12", "note": "[Compound 231]", "Activity (concentration of inhibitory activity)": "b (“b” indicates activity is at a concentration greater than 10 micromolar)"}
{"smiles": "Cc1cn(C(=O)c2c(Cl)cccc2Cl)c2ccc(NC(=O)c3c(Cl)cccc3Cl)cc12", "note": "[Compound 232]", "Activity (concentration of inhibitory activity)": "b (“b” indicates activity is at a concentration greater than 10 micromolar)"}
{"smiles": "Cc1ccsc1C(=O)Nc1ccc2c(c1)c(C)cn2C(=O)c1c(Cl)cccc1Cl", "note": "[Compound 233]", "Activity (concentration of inhibitory activity)": "b (“b” indicates activity is at a concentration greater than 10 micromolar)"}
{"smiles": "Cc1cn(C(=O)c2c(Cl)cccc2Cl)c2ccc(NC(=O)c3c(F)cccc3F)cc12", "note": "[Compound 235]", "Activity (concentration of inhibitory activity)": "b (“b” indicates activity is at a concentration greater than 10 micromolar)"}
{"smiles": "Cc1cn(C(=O)c2c(Cl)cccc2Cl)c2ccc(NC(=O)C3CCCCC3)cc12", "note": "[Compound 236]", "Activity (concentration of inhibitory activity)": "b (“b” indicates activity is at a concentration greater than 10 micromolar)"}
{"smiles": "Cc1cn(C(=O)c2c(Cl)cccc2Cl)c2ccc(NC(=O)/C=C/c3ccccc3)cc12", "note": "[Compound 237]", "Activity (concentration of inhibitory activity)": "b (“b” indicates activity is at a concentration greater than 10 micromolar)"}
{"smiles": "Cc1c(C)n(C(=O)c2c(Cl)cccc2Cl)c2ccc(NC(=O)/C=C/c3ccccc3)cc12", "note": "[Compound 238]", "Activity (concentration of inhibitory activity)": "b (“b” indicates activity is at a concentration greater than 10 micromolar)"}
{"smiles": "Cc1cc2cc(NC(=O)C3CCCC3)ccc2n1C(=O)c1ccc(Cl)cc1Cl", "note": "[Compound 239]", "Activity (concentration of inhibitory activity)": "b (“b” indicates activity is at a concentration greater than 10 micromolar)"}
{"smiles": "Cc1cc2cc(NC(=O)C3CCCC3)ccc2n1C(=O)c1cccc(OC(F)(F)F)c1", "note": "[Compound 240]", "Activity (concentration of inhibitory activity)": "b (“b” indicates activity is at a concentration greater than 10 micromolar)"}
{"smiles": "Cc1cc2cc(NC(=O)C(Cl)Cl)ccc2n1C(=O)c1c(Cl)cccc1Cl", "note": "[Compound 241]", "Activity (concentration of inhibitory activity)": "b (“b” indicates activity is at a concentration greater than 10 micromolar)"}
{"smiles": "Cc1cc2cc(NC(=O)c3cccs3)ccc2n1C(=O)c1c(Cl)cccc1Cl", "note": "[Compound 242]", "Activity (concentration of inhibitory activity)": "b (“b” indicates activity is at a concentration greater than 10 micromolar)"}
{"smiles": "Cc1cc2cc(NC(=O)c3cccc(C(F)(F)F)c3)ccc2n1C(=O)c1c(Cl)cccc1Cl", "note": "[Compound 243]", "Activity (concentration of inhibitory activity)": "b (“b” indicates activity is at a concentration greater than 10 micromolar)"}
{"smiles": "Cc1cc2cc(NC(=O)c3cccc(F)c3)ccc2n1C(=O)c1c(Cl)cccc1Cl", "note": "[Compound 244]", "Activity (concentration of inhibitory activity)": "b (“b” indicates activity is at a concentration greater than 10 micromolar)"}
{"smiles": "Cc1cc2cc(NC(=O)c3nc4ccccc4s3)ccc2n1C(=O)c1c(Cl)cccc1Cl", "note": "[Compound 245]", "Activity (concentration of inhibitory activity)": "b (“b” indicates activity is at a concentration greater than 10 micromolar)"}
{"smiles": "CC(=O)N1CCC(C(=O)Nc2ccc3c(c2)cc(C)n3C(=O)c2c(Cl)cccc2Cl)CC1", "note": "[Compound 246]", "Activity (concentration of inhibitory activity)": "b (“b” indicates activity is at a concentration greater than 10 micromolar)"}
{"smiles": "O=C(Nc1ccc2c(ccn2C(=O)c2c(Cl)cccc2Cl)c1)C1CCCC1", "note": "[Compound 247]", "Activity (concentration of inhibitory activity)": "b (“b” indicates activity is at a concentration greater than 10 micromolar)"}
{"smiles": "O=C(Nc1ccc2c(ccn2C(=O)c2c(Cl)cccc2Cl)c1)C(Cl)Cl", "note": "[Compound 248]", "Activity (concentration of inhibitory activity)": "b (“b” indicates activity is at a concentration greater than 10 micromolar)"}
{"smiles": "O=C(Nc1ccc2c(ccn2C(=O)c2c(Cl)cccc2Cl)c1)c1cccc(F)c1", "note": "[Compound 249]", "Activity (concentration of inhibitory activity)": "b (“b” indicates activity is at a concentration greater than 10 micromolar)"}
{"smiles": "O=C(Nc1ccc2c(ccn2C(=O)c2c(Cl)cccc2Cl)c1)c1cccc(C(F)(F)F)c1", "note": "[Compound 250]", "Activity (concentration of inhibitory activity)": "b (“b” indicates activity is at a concentration greater than 10 micromolar)"}
{"smiles": "O=C(Nc1ccc2c(ccn2C(=O)c2c(Cl)cccc2Cl)c1)c1cccs1", "note": "[Compound 251]", "Activity (concentration of inhibitory activity)": "b (“b” indicates activity is at a concentration greater than 10 micromolar)"}
{"smiles": "O=C(Nc1ccc2c(ccn2C(=O)c2c(Cl)cccc2Cl)c1)C1CCCCC1", "note": "[Compound 252]", "Activity (concentration of inhibitory activity)": "b (“b” indicates activity is at a concentration greater than 10 micromolar)"}
{"smiles": "O=C(Nc1ccc2c(ccn2C(=O)c2c(Cl)cccc2Cl)c1)C1CC1", "note": "[Compound 254]", "Activity (concentration of inhibitory activity)": "b (“b” indicates activity is at a concentration greater than 10 micromolar)"}
